According to patent publication US4771062A, “Diaryl sulphide derivatives” (Bayer Aktiengesellschaft, priority 1986, dated 1988):
pIC50: −log10 of the molar value. Counter-ions that a name gives are not always drawn.

Assays:
[1] = target: T1, lipoxygenase activity of PMN (Rattus norvegicus, UniProt P12527); experiment: LTB4 formed after stimulation with Ca-ionophor, determined by reversed phase HPLC, as a measure of the lipoxygenase activity of PMN; format: cell-based, rats; conditions: LTB4 formation, Ca-ionophor stimulated rat PMN
T1 construct: lipoxygenase activity of PMN in rats; endogenous in cells; host or cells: rat PMN (polymorphonuclear leucocytes)
T1 sequence (P12527 1-673): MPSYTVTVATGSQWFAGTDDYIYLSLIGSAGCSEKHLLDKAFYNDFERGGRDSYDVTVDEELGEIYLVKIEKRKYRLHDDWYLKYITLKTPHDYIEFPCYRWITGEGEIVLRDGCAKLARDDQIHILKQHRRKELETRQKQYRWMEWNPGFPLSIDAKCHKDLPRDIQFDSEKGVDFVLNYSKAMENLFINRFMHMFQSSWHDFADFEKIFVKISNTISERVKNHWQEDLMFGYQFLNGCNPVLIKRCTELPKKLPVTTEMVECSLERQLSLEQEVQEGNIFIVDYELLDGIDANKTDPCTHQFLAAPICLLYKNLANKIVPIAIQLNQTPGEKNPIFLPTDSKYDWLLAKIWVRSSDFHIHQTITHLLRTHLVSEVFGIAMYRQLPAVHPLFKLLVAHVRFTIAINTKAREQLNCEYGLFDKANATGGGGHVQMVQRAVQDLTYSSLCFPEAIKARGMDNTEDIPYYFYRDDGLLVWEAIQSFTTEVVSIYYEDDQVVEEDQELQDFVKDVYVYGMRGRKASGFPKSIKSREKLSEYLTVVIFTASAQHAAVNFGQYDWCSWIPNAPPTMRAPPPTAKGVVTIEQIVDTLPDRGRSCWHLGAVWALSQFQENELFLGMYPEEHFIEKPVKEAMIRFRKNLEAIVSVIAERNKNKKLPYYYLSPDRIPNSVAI
Description: The pharmacological action of the substances according to the invention was determined by the following method:
The leucotriene B4 (LTB4) formed after stimulation with Ca-ionophor is determined by means of reversed phase HPLC in accordance with the method of Borgeat et al. Proc. Natl. Acad. Sci. USA, 76, 215 (1982) as a measure of the lipoxygenase activity of PMN in rats.

[2] = appearance of the isolated salt in air (hygroscopicity); format: physicochemical; conditions: after lyophilization
Description: 3 g of bis[4-(Δ^2 -thiazolin-2-yl)aminophenyl]sulphide are taken up in 0.6 ml of 1N HCl and 10 ml of H2 O and the mixture is lyophilized.

| Structure (SMILES) | pIC50 [1] | hygroscopicity [2] |
| --- | --- | --- |
| c1cc(Sc2ccc(NC3=NCCS3)cc2)ccc1NC1=NCCS1 [Example 2, Bis[4-(Δ^2-thiazolin-2-yl)aminophenyl]sulphide] | 6.46 |  |
| c1cc(Sc2ccc(NC3=NCCS3)cc2)ccc1NC1=NCCS1 [Example 3, Bis[4-(Δ^2-thiazolin-2-yl)aminophenyl]sulphide HCl salt] | 6.11 | Hygroscopic crystals which deliquesce in air |
| c1ccc(C2CSC(Nc3ccc(Sc4ccc(NC5=NC(c6ccccc6)CS5)cc4)cc3)=N2)cc1 (stereo not drawn) [Example 4, Bis[4-(4-phenyl-Δ^2-thiazolin-2-yl)aminophenyl]sulphide] | 6.30 |  |
| COC(=O)Cc1cc(NC2=NCCS2)ccc1Sc1ccccc1 [Example 10, Methyl[2-phenylthio-5-(Δ^2-thiazolin-2-yl)amino]phenylacetate] | 6.68 |  |
| c1ccc(Sc2ccc(NC3=NCCS3)cc2)cc1 [Example 12] | 7.01 |  |
| CN1CCSC1=Nc1ccc(Sc2ccc(N=C3SCCN3C)cc2)cc1 [Example 17, Bis[4-(3-methyl-thiazolidin-2-imino)phenyl]sulphide] | 6.58 |  |
| CC1CN=C(Nc2ccc(Sc3ccc(NC4=NCC(C)S4)cc3)cc2)S1 (stereo not drawn) [Example 22, Bis[4-(5-methyl-Δ^2-thiazolin-2-yl)aminophenyl]sulphide] | 6.91 |  |
| Cc1ccc(S(=O)(=O)Nc2ccc(Sc3ccc(NC4=NCCS4)cc3)cc2)cc1 [Example 29, 4-(Δ^2 -Thiazolin-2-yl)amino-4'-tosylaminodiphenyl sulphide] | 6.84 |  |
